From PubChem BioAssay AID248 (DTP/NCI, 2004)
Several values for one entry are separate records, joined by “and”; a condition that tells them apart may be missing. Identical values can stand only once. Inconclusive results and toxic doses are left out. No stated cut-off is given here; in the data, active means T/C of 150% or more; inactive means T/C below 125%.

System: L1210 leukemia ip in BDF1 mice, survival T/C
Experiment: NCI In Vivo Anticancer Drug Screen. Data for tumor model L1210 Leukemia (intraperitoneal) in B6D2F1 (BDF1) mice
Conditions: endpoint: mean survival time, higher = longer survival
Outline: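 Tumor cells were implanted, animals were treated, and survival was followed. The result divides the treated measurement by the vehicle-control measurement.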

[1] = dose: 100.0 mg/kg/injection, schedule: Q01DX001 (ip), vehicle: saline
[2] = dose: 200.0 mg/kg/injection, schedule: Q01DX001 (ip), vehicle: saline
[3] = dose: 400.0 mg/kg/injection, schedule: Q01DX001 (ip), vehicle: saline
[4] = dose: 10.0 mg/kg/injection, schedule: Q01DX001 (ip), vehicle: saline
[5] = dose: 20.0 mg/kg/injection, schedule: Q01DX001 (ip), vehicle: saline
[6] = dose: 40.0 mg/kg/injection, schedule: Q01DX001 (ip), vehicle: saline
[7] = dose: 100.0 mg/kg/injection, schedule: Q04DX003 (ip), vehicle: saline with Tween-80
[8] = dose: 200.0 mg/kg/injection, schedule: Q04DX003 (ip), vehicle: saline with Tween-80
[9] = dose: 400.0 mg/kg/injection, schedule: Q04DX003 (ip), vehicle: Klucel (hydroxypropylcellulose) (HPC)

Measured: T/C

OB(Cc1ccccc1)c1ccccc1
inactive: [1] 97 % of control | [2] 89 % of control | [3] 97 % of control

CCCCCCCCCCCCCCCCCC[n+]1cccc(C#N)c1
inactive: dose: 5.0 mg/kg/injection, schedule: Q01DX009 (ip), vehicle: saline 98 % of control | [4] 93 % of control | dose: 10.0 mg/kg/injection, schedule: Q01DX009 (ip), vehicle: saline 92 % of control | dose: 10.0 mg/kg/injection, schedule: Q04DX003 (ip), vehicle: saline 105 % of control | [5] 91 % of control | dose: 20.0 mg/kg/injection, schedule: Q04DX003 (ip), vehicle: saline 97 % of control | [6] 91 % of control | dose: 40.0 mg/kg/injection, schedule: Q04DX003 (ip), vehicle: saline 114 % of control

CC(C)(C)NC(=O)Nc1ccccn1
inactive: dose: 100.0 mg/kg/injection, schedule: Q01DX009 (ip), vehicle: saline with Tween-80 102 % of control and 112 % of control | dose: 100.0 mg/kg/injection, schedule: Q04DX002 (ip), vehicle: saline with Tween-80 96 % of control | [7] 97 % of control | dose: 200.0 mg/kg/injection, schedule: Q01DX009 (ip), vehicle: saline with Tween-80 112 % of control and 91 % of control | dose: 200.0 mg/kg/injection, schedule: Q04DX002 (ip), vehicle: saline with Tween-80 108 % of control and 115 % of control | [8] 115 % of control | dose: 400.0 mg/kg/injection, schedule: Q01DX009 (ip), vehicle: saline with Tween-80 104 % of control | dose: 400.0 mg/kg/injection, schedule: Q04DX002 (ip), vehicle: saline with Tween-80 94 % of control and 96 % of control

CC(=O)OC(C#N)c1ccco1 (stereo not given)
inactive: dose: 3.0 mg/kg/injection, schedule: Q01DX009 (ip), vehicle: saline with Tween-80 91 % of control | dose: 3.0 mg/kg/injection, schedule: Q04DX003 (ip), vehicle: saline with Tween-80 105 % of control | dose: 6.0 mg/kg/injection, schedule: Q01DX009 (ip), vehicle: saline with Tween-80 100 % of control | dose: 6.0 mg/kg/injection, schedule: Q04DX003 (ip), vehicle: saline with Tween-80 101 % of control | dose: 12.0 mg/kg/injection, schedule: Q01DX009 (ip), vehicle: saline with Tween-80 91 % of control | dose: 12.0 mg/kg/injection, schedule: Q04DX003 (ip), vehicle: saline with Tween-80 101 % of control | dose: 12.5 mg/kg/injection, schedule: Q04DX003 (ip), vehicle: saline with Tween-80 89 % of control

CN(C(=O)c1cc([N+](=O)[O-])ccc1O)c1ccccc1
inactive: [1] 98 % of control | [2] 95 % of control | [3] 101 % of control

CC(C)CC(NS(=O)(=O)Cc1ccccc1)C(=O)O (stereo not given)
inactive: dose: 100.0 mg/kg/injection, schedule: Q01DX001 (ip), vehicle: other 105 % of control | dose: 200.0 mg/kg/injection, schedule: Q01DX001 (ip), vehicle: other 107 % of control | dose: 400.0 mg/kg/injection, schedule: Q01DX001 (ip), vehicle: other 96 % of control

COC1OC(CO)C(O)C(OS(C)(=O)=O)C1OS(C)(=O)=O (stereo not given)
inactive: dose: 100.0 mg/kg/injection, schedule: Q04DX002 (ip), vehicle: saline 104 % of control | dose: 200.0 mg/kg/injection, schedule: Q04DX002 (ip), vehicle: saline 104 % of control | dose: 400.0 mg/kg/injection, schedule: Q04DX002 (ip), vehicle: saline 93 % of control

CCCCCCCCCCCCCOc1ccc(Sc2ccc([N+](=O)[O-])cc2)cc1
inactive: [9] 88 % of control

Cc1cc(C(=O)NNCc2ccccc2)no1
inactive: dose: 12.5 mg/kg/injection, schedule: Q01DX009 (ip), vehicle: Klucel (hydroxypropylcellulose) (HPC) 102 % of control | dose: 25.0 mg/kg/injection, schedule: Q01DX009 (ip), vehicle: Klucel (hydroxypropylcellulose) (HPC) 96 % of control | dose: 50.0 mg/kg/injection, schedule: Q01DX009 (ip), vehicle: Klucel (hydroxypropylcellulose) (HPC) 97 % of control

O=C(Nc1ccccc1)Nc1ccc(C(=O)CCl)cc1
inactive: dose: 100.0 mg/kg/injection, schedule: Q01DX005 (ip), vehicle: saline with Tween-80 96 % of control | [7] 102 % of control | dose: 200.0 mg/kg/injection, schedule: Q01DX005 (ip), vehicle: saline with Tween-80 110 % of control | [8] 112 % of control | dose: 400.0 mg/kg/injection, schedule: Q01DX005 (ip), vehicle: saline with Tween-80 92 % of control | dose: 400.0 mg/kg/injection, schedule: Q04DX003 (ip), vehicle: saline with Tween-80 100 % of control

Cc1ccc(NC(=O)OCCSCCOC(=O)Nc2ccc(C)cc2)cc1
inactive: dose: 100.0 mg/kg/injection, schedule: Q01DX009 (ip), vehicle: other 89 % of control | dose: 200.0 mg/kg/injection, schedule: Q01DX009 (ip), vehicle: other 89 % of control | dose: 400.0 mg/kg/injection, schedule: Q01DX009 (ip), vehicle: other 97 % of control

CCCCCCCCCCCCn1c(C)nc2ccccc21
inactive: dose: 2.4 mg/kg/injection, schedule: Q03HX024 (ip), vehicle: saline 94 % of control | dose: 3.6 mg/kg/injection, schedule: Q03HX024 (ip), vehicle: saline 91 % of control | dose: 5.0 mg/kg/injection, schedule: Q01DX001 (ip), vehicle: saline 104 % of control | dose: 5.0 mg/kg/injection, schedule: Q04DX003 (ip), vehicle: carboxymethylcellulose (CMC) 105 % of control | dose: 5.4 mg/kg/injection, schedule: Q03HX024 (ip), vehicle: saline 97 % of control | dose: 8.0 mg/kg/injection, schedule: Q03HX024 (ip), vehicle: saline 96 % of control | [4] 101 % of control | dose: 10.0 mg/kg/injection, schedule: Q04DX003 (ip), vehicle: carboxymethylcellulose (CMC) 106 % of control | dose: 12.0 mg/kg/injection, schedule: Q01DX009 (ip), vehicle: saline 116 % of control | dose: 12.0 mg/kg/injection, schedule: Q03HX024 (ip), vehicle: saline 104 % of control | dose: 18.0 mg/kg/injection, schedule: Q01DX009 (ip), vehicle: saline 118 % of control | [5] 104 % of control | dose: 20.0 mg/kg/injection, schedule: Q04DX003 (ip), vehicle: carboxymethylcellulose (CMC) 108 % of control | dose: 24.0 mg/kg/injection, schedule: Q01DX001 (ip), vehicle: saline 106 % of control | dose: 24.0 mg/kg/injection, schedule: Q04DX003 (ip), vehicle: saline 113 % of control | dose: 27.0 mg/kg/injection, schedule: Q01DX009 (ip), vehicle: saline 113 % of control | dose: 36.0 mg/kg/injection, schedule: Q01DX001 (ip), vehicle: saline 105 % of control | dose: 36.0 mg/kg/injection, schedule: Q04DX003 (ip), vehicle: saline 104 % of control | [6] 112 % of control

CC(C)(C)N=NC1(S(=O)(=O)c2ccccc2)CCCCC1
inactive: dose: 100.0 mg/kg/injection, schedule: Q04DX003 (ip), vehicle: Klucel (hydroxypropylcellulose) (HPC) 98 % of control | dose: 200.0 mg/kg/injection, schedule: Q04DX003 (ip), vehicle: Klucel (hydroxypropylcellulose) (HPC) 93 % of control | [9] 91 % of control
